From patent US20080226714A1, “SUSTAINED-RELEASE TABLET FORMULATIONS OF PIPERAZINE-PIPERIDINE ANTAGONISTS AND AGONISTS OF THE 5-HT1A RECEPTOR HAVING ENHANCED INTESTINAL DISSOLUTION” (WYETH, priority 2007, published 2008)
In brackets after ≈: the same amount, converted by molar mass. Where two headings read alike, the source gives them in different places.

Tests used:
[1] = physchem; type: physicochemical
From the text: (§1) Pharmaceutical compounds that interact with the 5-HT1A receptor are useful to treat a wide variety of central nervous system disorders, such as cognition disorders, anxiety disorders, and depression. Certain piperazine-piperidine compounds have shown utility as 5-HT1A receptor antagonists, agonists and partial antagonist/agonists. See, for example, U.S. Patent Publication No. 2007/0027160, filed Jun. 9, 2006, entitled “piperazine-Piperidine Antagonists And Agonists Of The 5-HT1A Receptor”. […] During development of 5-fluoro-8-{4-[4-(6-methoxyquinolin-8-yl)piperazin-1-yl]piperidin-1-yl}quinoline, it was discovered that the compound has a pH-dependent solubility. […] Therefore, the rate of systemic input of 5-fluoro-8-{4-[4-(6-methoxyquinolin-8-yl)piperazin-1-yl]piperidin-1-yl}quinoline will be dependent on the dissolution or solubilization of the compound. […] A controlled-release formulation to reduce the dose frequency of 5-fluoro-8-{4-[4-(6-methoxyquinolin-8-yl)piperazin-1-yl]piperidin-1-yl}quinoline would be beneficial for improving compliance and convenience. However, this type of formulation presents the challenge of maintaining the dissolution of the compound in the lower gastrointestinal tract where solubility is very low.

[2] = Permeability characteristics in animal studies; type: in vivo
From the text: as §1

[3] = Preclinical half-life after IV bolus; type: in vivo; conditions: Sprague-Dawley rats, 0.3 mg/kg IV bolus
From the text: See, for example, U.S. Patent Publication No. 2007/0027160, filed Jun. 9, 2006, entitled “piperazine-Piperidine Antagonists And Agonists Of The 5-HT1A Receptor”.

Row | SMILES | solubility ([1]; trisuccinate salt, pH greater than about six) | solubility ([1]; water, trisuccinate salt, aqueous, read-out: aqueous solubility) | solubility ([1]; free base, water, read-out: water solubility) | solubility ([1]; pH 2.4, aqueous buffer, pH about 2.4, read-out: solubility) | solubility ([1]; pH 6, aqueous buffer, pH levels greater than about 6, read-out: solubility) | solubility ([1]; pH 8.9, aqueous buffer, pH about 8.9, read-out: solubility) | permeability [2] | t1/2 [3]
1 | COc1cc(N2CCN(C3CCN(c4ccc(F)c5cccnc45)CC3)CC2)c2ncccc2c1.O=C(O)CCC(=O)O.O=C(O)CCC(=O)O.O=C(O)CCC(=O)O [5-fluoro-8-{4-[4-(6-methoxyquinolin-8-yl)piperazin-1-yl]piperidin-1-yl}quinoline trisuccinate] | sub-microgram per milliliter level | ~1000 µg/mL |  |  |  |  |  | 
2 | COc1cc(N2CCN(C3CCN(c4ccc(F)c5cccnc45)CC3)CC2)c2ncccc2c1 [5-fluoro-8-{4-[4-(6-methoxyquinolin-8-yl)piperazin-1-yl]piperidin-1-yl}quinoline] |  |  | ~0.04 µg/mL (≈ 0.0848 µM) | ~2200 µg/mL (≈ 4670 µM) | < 1 µg/mL | ~0.036 µg/mL (≈ 0.0763 µM) | high permeability | about one
